Experimental data as given in US20140315972A1, “RS)-2-(2-oxo-4-phenylpyrrolidin-1-yl)acetamide compound having modulatory activity with a commensurate effect, pharmaceutical substance (variants) and its application, composition (variants) thereof” (priority 2011, published 2014).
Several values for one entry are separate records, joined by “and”; a condition that tells them apart may be missing. Equal entries are not always repeated. Marks after values point to notes of the source that are not given here.

Legend:
[1] = tested on: rats; assay: Ischemic stroke (middle cerebral artery occlusion), McGrow scale; format: in vivo
Excerpt: The stroke condition was simulated in male rats (270-320 g) at a local cerebral hemorrhage, as a hemorrhagic stroke (intracerebral post-traumatic hematoma) by the method of A. N. Makarenko et al (1990) and at cerebral ischemia with distal occlusion of the middle cerebral artery (Chen S. T., Hsu C. Y., Hogan E. L., Maricq H., Balentine J. D. A model of focal ischemic stroke in the rat reproducible extensive cortical infarction//Stroke.—1989, V. 17, No 4, p. 738-743) as an ischemic stroke. Phenotropil was injected intraperitoneally at hemorrhagic stroke at 100 mg/kg immediately after surgery, and one hour before and two hours after the surgery (at doses of 100, 200 and 300 mg/kg) at ischemic stroke. Control animals were treated adequately with distilled water.

[2] = normal conditions and high physical activity; cited from earlier work
[3] = tested on: mice; assay: Haloperidol-induced catalepsy; format: in vivo; settings: for decrease of catalepsy severity vs control: 300 mg/kg; for Catalepsy: mice
Protocol: Duration of catalepsy was measured in seconds, after 60, 120 and 180 minutes after the drug administration. Phenotropil was administered intraperitoneally at doses of 50, 100 and 300 mg/kg 15 minutes after haloperidol 0.5 mg/kg. Haloperidol induced catalepsy growing over time. […] At a dose of 50 mg/kg, duration of the catalepsy after 180 min was only 4.8 seconds as compared to controls (63.4 seconds). […] Phenotropil markedly counteracts haloperidol-induced catalepsy, indicating its antiparkinsonian activity.

[4] = Plasma electrolyte balance at course administration; format: in vivo; settings: rats
[5] = tested on: rats; assay: Retrograde amnesia of CRPA induced by electroshock and scopolamine, adult rats; format: in vivo
Excerpt: Phenotropil has a pronounced mnemotropic and nootropic activity. The results of the study of the antiamnestic activity (classical technique in the equipment manufactured by Lafayette Instrument Co, USA) in the retrograde amnesia of the passive avoidance conditional reflex (CRPA) induced by maximal electroshock (MES) and scopolamine in male rats (180-250 g) are shown in Table 7. […] Taking into account the studies using the open field and cross maze tests, the nootropic action component of the modulatory drug not only may be more pronounced, but is broader in manifestation depending on the type of disorder or in unfamiliar situational conditions. The pronounced nootropic activity of Phenotropil (100, 200, 300 mg/kg) also manifests in rat pups of both sexes 30-35 days of age (Table 7.1) after scopolamine-induced CRPA amnesia.

[6] = 100 mg/kg i.p. after MCAO, first day
[7] = 100 mg/kg i.p. after MCAO, second day
[8] = 100 mg/kg i.p. after MCAO, third day
[9] = 100 mg/kg i.p. before MCAO, first day
[10] = 100 mg/kg i.p. before MCAO, second day
[11] = 100 mg/kg i.p. before MCAO, third day
[12] = 200 mg/kg i.p. after MCAO, first day
[13] = 200 mg/kg i.p. after MCAO, second day
[14] = 200 mg/kg i.p. after MCAO, third day
[15] = 200 mg/kg i.p. before MCAO, first day
[16] = 200 mg/kg i.p. before MCAO, second day
[17] = 200 mg/kg i.p. before MCAO, third day
[18] = 300 mg/kg i.p. after MCAO, first day
[19] = 300 mg/kg i.p. after MCAO, second day
[20] = 300 mg/kg i.p. after MCAO, third day
[21] = 300 mg/kg i.p. before MCAO, first day
[22] = 300 mg/kg i.p. before MCAO, second day
[23] = 300 mg/kg i.p. before MCAO, third day
[24] = 4-week administration 300 mg/kg

NC(=O)CN1CC(c2ccccc2)CC1=O (racemic) [Compound 1, (RS)-2-(2-oxo-4-phenylpyrrolidine-1-yl)acetamide]
animals (out of 10) with circling movements [1, 6]: 0*
animals (out of 10) with lethargy, slowness of functions [1, 6]: 4*
animals (out of 10) with tremor [1, 6]: 2*
animals (out of 10) with unilateral hemiptosis [1, 6]: 4
animals (out of 10) with circling movements [1, 7]: 0*
animals (out of 10) with lethargy, slowness of functions [1, 7]: 3*
animals (out of 10) with tremor [1, 7]: 0*
animals (out of 10) with unilateral hemiptosis [1, 7]: 5
animals (out of 10) with circling movements [1, 8]: 0
animals (out of 10) with lethargy, slowness of functions [1, 8]: 2*
animals (out of 10) with tremor [1, 8]: 0
animals (out of 10) with unilateral hemiptosis [1, 8]: 3
animals (out of 10) with circling movements [1, 9]: 0*
animals (out of 10) with lethargy, slowness of functions [1, 9]: 2*
animals (out of 10) with tremor [1, 9]: 2*
animals (out of 10) with unilateral hemiptosis [1, 9]: 4
animals (out of 10) with circling movements [1, 10]: 0*
animals (out of 10) with lethargy, slowness of functions [1, 10]: 1*
animals (out of 10) with tremor [1, 10]: 0*
animals (out of 10) with unilateral hemiptosis [1, 10]: 5
animals (out of 10) with circling movements [1, 11]: 0
animals (out of 10) with lethargy, slowness of functions [1, 11]: 1*
animals (out of 10) with tremor [1, 11]: 0
animals (out of 10) with unilateral hemiptosis [1, 11]: 3
animals (out of 10) with circling movements [1, 12]: 0*
animals (out of 10) with lethargy, slowness of functions [1, 12]: 4*
animals (out of 10) with tremor [1, 12]: 2*
animals (out of 10) with unilateral hemiptosis [1, 12]: 3
animals (out of 10) with circling movements [1, 13]: 0*
animals (out of 10) with lethargy, slowness of functions [1, 13]: 3*
animals (out of 10) with tremor [1, 13]: 0*
animals (out of 10) with unilateral hemiptosis [1, 13]: 4
animals (out of 10) with circling movements [1, 14]: 0
animals (out of 10) with lethargy, slowness of functions [1, 14]: 1*
animals (out of 10) with tremor [1, 14]: 0
animals (out of 10) with unilateral hemiptosis [1, 14]: 3
animals (out of 10) with circling movements [1, 15]: 0*
animals (out of 10) with lethargy, slowness of functions [1, 15]: 3*
animals (out of 10) with tremor [1, 15]: 3*
animals (out of 10) with unilateral hemiptosis [1, 15]: 4
animals (out of 10) with circling movements [1, 16]: 0*
animals (out of 10) with lethargy, slowness of functions [1, 16]: 2*
animals (out of 10) with tremor [1, 16]: 0*
animals (out of 10) with unilateral hemiptosis [1, 16]: 4
animals (out of 10) with circling movements [1, 17]: 0
animals (out of 10) with lethargy, slowness of functions [1, 17]: 0*
animals (out of 10) with tremor [1, 17]: 0
animals (out of 10) with unilateral hemiptosis [1, 17]: 3
animals (out of 10) with circling movements [1, 18]: 0*
animals (out of 10) with lethargy, slowness of functions [1, 18]: 4*
animals (out of 10) with tremor [1, 18]: 3*
animals (out of 10) with unilateral hemiptosis [1, 18]: 3
animals (out of 10) with circling movements [1, 19]: 0*
animals (out of 10) with lethargy, slowness of functions [1, 19]: 2*
animals (out of 10) with tremor [1, 19]: 0*
animals (out of 10) with unilateral hemiptosis [1, 19]: 5
animals (out of 10) with circling movements [1, 20]: 0
animals (out of 10) with lethargy, slowness of functions [1, 20]: 1*
animals (out of 10) with tremor [1, 20]: 0
animals (out of 10) with unilateral hemiptosis [1, 20]: 3
animals (out of 10) with circling movements [1, 21]: 0*
animals (out of 10) with lethargy, slowness of functions [1, 21]: 2*
animals (out of 10) with tremor [1, 21]: 2*
animals (out of 10) with unilateral hemiptosis [1, 21]: 4
animals (out of 10) with circling movements [1, 22]: 0*
animals (out of 10) with lethargy, slowness of functions [1, 22]: 1*
animals (out of 10) with tremor [1, 22]: 0*
animals (out of 10) with unilateral hemiptosis [1, 22]: 5
animals (out of 10) with circling movements [1, 23]: 0
animals (out of 10) with lethargy, slowness of functions [1, 23]: 0*
animals (out of 10) with tremor [1, 23]: 0
animals (out of 10) with unilateral hemiptosis [1, 23]: 3
time of excretion from the body [2]: 72 h
decrease of catalepsy severity vs control ([3]; 180 minutes): decreased threefold
decrease of catalepsy severity vs control ([3]; after the 60 min point): 2.6 times
Catalepsy ([3]; haloperidol 0.5 mg/kg + 50 mg/kg i.p., 120 min): 8.5 ± 3.5 s
Catalepsy ([3]; haloperidol 0.5 mg/kg + 50 mg/kg i.p., 180 min, listed as Phenotropil): 4.8 s and 4.8 ± 2.1 s
Catalepsy ([3]; haloperidol 0.5 mg/kg + 100 mg/kg i.p., 120 min): 2.0 ± 1.0 s
Catalepsy ([3]; haloperidol 0.5 mg/kg + 100 mg/kg i.p., 180 min): 0.0 ± 0.0 s
Catalepsy ([3]; haloperidol 0.5 mg/kg + 300 mg/kg i.p., 60 min): 6.6 ± 1.9 s
Catalepsy ([3]; haloperidol 0.5 mg/kg + 300 mg/kg i.p., 120 min): 10.6 ± 4.5 s
Catalepsy ([3]; haloperidol 0.5 mg/kg + 300 mg/kg i.p., 180 min): 21.4 ± 8.4 s
serum Ca ([4]; 4-week administration 50 mg/kg): 4.21 ± 0.23 mEq/l
serum K ([4]; 4-week administration 50 mg/kg): 3.15 ± 0.15 mEq/l
serum Na ([4]; 4-week administration 50 mg/kg): 127.3 ± 2.71 mEq/l
serum Ca [4, 24]: 4.69 ± 0.24 mEq/l
serum K [4, 24]: 3.44 ± 0.20 mEq/l
serum Na [4, 24]: 125.7 ± 3.43 mEq/l
Latent period of the first entry into the chamber at testing the preservation of CRPA, after 24 hours ([5]; ECS amnesia, 25 mg/kg): 65.6* seconds
Latent period of the first entry into the chamber at testing the preservation of CRPA, after 24 hours ([5]; ECS amnesia, 50 mg/kg): 74.4* seconds
Latent period of the first entry into the chamber at testing the preservation of CRPA, after 24 hours ([5]; ECS amnesia, 100 mg/kg): 112.5* seconds
Latent period of the first entry into the chamber at testing the preservation of CRPA, after 24 hours ([5]; scopolamine 1 mg/kg amnesia, 25 mg/kg): 78.8* seconds
Latent period of the first entry into the chamber at testing the preservation of CRPA, after 24 hours ([5]; scopolamine 1 mg/kg amnesia, 50 mg/kg): 96.0* seconds
Latent period of the first entry into the chamber at testing the preservation of CRPA, after 24 hours ([5]; scopolamine 1 mg/kg amnesia, 100 mg/kg): 125.3* seconds
